# Where “and” joins values, the source holds several entries; their conditions need not be identical. Equal entries are not always repeated.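 96-well plates; 48 h exposure; 5 concentrations. Endpoints by linear interpolation between flanking doses. Not reached: highest tested concentration assigned. Here, GI50 denotes the concentration required for 50% inhibition of growth. TGI is the concentration that stops growth completely.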
# What was measured:
# Assay in all cases: inhibition of tumour cell growth, NCI panel, 48 h
# [1] = test system: U251 CNS
# [2] = test system: UACC-62 melanoma
# [3] = test system: SF-295 CNS
# [4] = test system: COLO 205 colon
# [5] = test system: RXF 393 renal
# [6] = test system: 786-0 renal
# [7] = test system: HCC-2998 colon
# [8] = test system: A498 renal
# [9] = test system: MDA-MB-435
# [10] = test system: OVCAR-4 ovarian
Structure (SMILES),GI50 [1],TGI [1],GI50 [2],TGI [2],GI50 [3],TGI [3],GI50 [4],TGI [4],GI50 [5],TGI [5],GI50 [6],TGI [6],GI50 [7],TGI [7],GI50 [8],TGI [8],GI50 [9],TGI [9],GI50 [10],TGI [10]
CC1CC2(C)CC(=O)C1C1C(=O)N(CCN3CCOCC3)C(=O)C12 (centres undefined),> 100 µM,> 100 µM,> 100 µM,> 100 µM,> 100 µM,> 100 µM,> 100 µM,> 100 µM,> 100 µM,> 100 µM,> 100 µM,> 100 µM,> 100 µM,> 100 µM,> 100 µM,> 100 µM,> 100 µM,> 100 µM,> 100 µM,> 100 µM
COc1ccc(-c2cc3c(N)ncnc3o2)cc1,> 25 µM,> 25 µM,5.72 µM,> 25 µM,> 25 µM,> 25 µM,> 25 µM,> 25 µM,> 25 µM,> 25 µM,> 25 µM,> 25 µM,> 25 µM,> 25 µM,8.14 µM,> 25 µM,> 25 µM,> 25 µM,> 25 µM,> 25 µM
C=CC(=O)Nc1cccc(Nc2nc(Nc3ccc(N4CCN(C(C)=O)CC4)cc3OC)ncc2C(F)(F)F)c1,4.75 µM and 4.08 µM,> 100 µM,2.7 µM,22.6 µM,6.82 µM and 8.18 µM,> 10 µM and 23.1 µM,1.86 µM and 1.78 µM,4.71 µM and 5.75 µM,2.83 µM and 2.17 µM,> 10 µM and 10.1 µM,2.67 µM and 1.56 µM,> 10 µM and 12.8 µM,2.58 µM and 4.62 µM,> 10 µM and 22.4 µM,2 µM and 0.802 µM,6.01 µM and 2.94 µM,4.11 µM and 2.95 µM,> 10 µM and 19.2 µM,5.12 µM and 1.71 µM,> 65.9 µM
CCC(=O)Oc1ccc(/C=N/NC(N)=S)nc1,4.5 µM,> 100 µM,3.43 µM,> 100 µM,12.3 µM,> 100 µM,27.5 µM,> 100 µM,2.93 µM,> 100 µM,3.19 µM,13.7 µM,13.6 µM,> 100 µM,23.3 µM,> 100 µM,7.86 µM,> 100 µM,3.92 µM,> 100 µM
Cn1c(=O)c2[nH]cnc2n(C)c1=O.[CH2-]C(Cc1cccc2cc(C(=O)O)c(=O)oc12)OC.[Hg+2].[OH-] (centres undefined),16.3 µM,29.8 µM,17.3 µM,31.3 µM,19.4 µM,38 µM,17.1 µM,30.9 µM,19.3 µM,35.9 µM,16.6 µM,30.2 µM,23 µM,39.2 µM,18.7 µM,33 µM,16.9 µM,30.6 µM,17.9 µM,35.8 µM
COc1ccc2c(c1)NC(=O)CN2c1nc(C)nc2ccccc12,0.000437 µM,> 100 µM,0.000432 µM,> 100 µM,0.000318 µM,,0.000322 µM,0.0012 µM,,> 100 µM,0.00346 µM,> 100 µM,0.000371 µM,34.2 µM,0.000376 µM,,0.000208 µM,0.000484 µM,,> 100 µM
O=[N+]([O-])c1ccc2nc(=S)[nH]n2c1,,> 100 µM,,> 100 µM,,> 100 µM,,> 100 µM,,> 100 µM,,> 100 µM,,> 100 µM,,> 100 µM,,> 100 µM,,> 100 µM
O=C(O)CSc1nnc2c3ccccc3c3ccccc3c2n1,,> 100 µM,,> 100 µM,,> 100 µM,,> 100 µM,,> 100 µM,,> 100 µM,,> 100 µM,,> 100 µM,,> 100 µM,,> 100 µM
COc1cc2c3c(n(CCCN4CCN(CCO)CC4)c(=O)c2cc1OC)-c1cc2c(cc1C3=O)OCO2,> 33.7 µM,> 48.6 µM,,> 33.9 µM,1.55 µM,25.2 µM,15.1 µM,> 57.2 µM,13.4 µM,30.9 µM,4.97 µM,18 µM,6.25 µM,20.4 µM,18.2 µM,81.6 µM,> 100 µM,> 100 µM,15.9 µM,> 50.7 µM
CCN1C(=O)N(CC)C2C1NN=c1s/c(=C\c3cnc(C)n3C)c(=O)n12 (centres undefined),2.83 µM,> 100 µM,1.14 µM,88 µM,1.21 µM,> 100 µM,1.63 µM,4.88 µM,1.2 µM,5.38 µM,6.54 µM,> 100 µM,2.65 µM,14.5 µM,0.946 µM,5.43 µM,0.321 µM,1.36 µM,3.76 µM,> 100 µM
NC(N)=NC(N)=NCc1ccco1,516 µM,> 1250 µM,748 µM,> 1250 µM,321 µM,> 1250 µM,> 1250 µM,> 1250 µM,> 1250 µM,> 1250 µM,> 1250 µM,> 1250 µM,> 1250 µM,> 1250 µM,190 µM and > 1250 µM,> 1250 µM,> 1250 µM,> 1250 µM,316 µM,> 1250 µM
COc1ccc(-c2cc(=O)c3cccnc3[nH]2)cc1,54.1 µM,> 100 µM,,91.2 µM,65 µM,> 100 µM,,52.5 µM,,> 100 µM,56.5 µM,> 100 µM,,> 100 µM,,> 100 µM,20 µM,91.6 µM,,> 100 µM

# Reference: PubChem BioAssay (NCI)
